Assay results as given in ChEMBL document CHEMBL3046451, “Design, synthesis, characterization, and in vitro antimicrobial action of novel trisubstituted s-triazines” (2012).
In brackets after ≈: the same amount, converted by molar mass.

Assays:
Candida albicans [1] = experiment: Antifungal activity against Candida albicans MTCC 183 after 48 hr by agar streak dilution method; format: functional; conditions: MTCC 183, 48 h
Bacillus cereus [2] = experiment: Antibacterial activity against Bacillus cereus MTCC 619 after 24 hr by agar streak dilution method; format: functional; conditions: MTCC 619, 24 h
Aspergillus niger [3] = experiment: Antifungal activity against Aspergillus niger MTCC 282 after 24 hr by paper disk diffusion method; format: functional
Proteus vulgaris [4] = experiment: Antibacterial activity against Proteus vulgaris MTCC 1771 after 24 hr by paper disk diffusion method; format: functional
Bacillus cereus [5] = experiment: Antibacterial activity against Bacillus cereus MTCC 619 after 24 hr by paper disk diffusion method; format: functional
Klebsiella pneumoniae [6] = experiment: Antibacterial activity against Klebsiella pneumoniae MTCC 109 after 24 hr by paper disk diffusion method; format: functional
Shigella flexneri [7] = experiment: Antibacterial activity against Shigella flexneri MTCC 1457 after 24 hr by agar streak dilution method; format: functional; conditions: MTCC 1457, 24 h
Salmonella typhi [8] = experiment: Antibacterial activity against Salmonella enterica subsp. enterica serovar Typhi MTCC 733 after 24 hr by paper disk diffusion method; format: functional
Aspergillus niger [9] = experiment: Antifungal activity against Aspergillus niger MTCC 282 after 48 hr by agar streak dilution method; format: functional; conditions: MTCC 282, 48 h
Escherichia coli [10] = experiment: Antibacterial activity against Escherichia coli MTCC 739 after 24 hr by paper disk diffusion method; format: functional
Pseudomonas aeruginosa [11] = experiment: Antibacterial activity against Pseudomonas aeruginosa MTCC 741 after 24 hr by paper disk diffusion method; format: functional
Salmonella typhi [12] = experiment: Antibacterial activity against Salmonella enterica subsp. enterica serovar Typhi MTCC 733 after 24 hr by agar streak dilution method; format: functional; conditions: MTCC 733, 24 h
Klebsiella pneumoniae [13] = experiment: Antibacterial activity against Klebsiella pneumoniae MTCC 109 after 24 hr by agar streak dilution method; format: functional; conditions: MTCC 109, 24 h
Shigella flexneri [14] = experiment: Antibacterial activity against Shigella flexneri MTCC 1457 after 24 hr by paper disk diffusion method; format: functional
Proteus vulgaris [15] = experiment: Antibacterial activity against Proteus vulgaris MTCC 1771 after 24 hr by agar streak dilution method; format: functional; conditions: MTCC 1771, 24 h
Pseudomonas aeruginosa [16] = experiment: Antibacterial activity against Pseudomonas aeruginosa MTCC 741 after 24 hr by agar streak dilution method; format: functional; conditions: MTCC 741, 24 h
Escherichia coli [17] = experiment: Antibacterial activity against Escherichia coli MTCC 739 after 24 hr by agar streak dilution method; format: functional; conditions: MTCC 739, 24 h
Staphylococcus aureus [18] = experiment: Antibacterial activity against Staphylococcus aureus MTCC 96 after 24 hr by agar streak dilution method; format: functional; conditions: MTCC 96, 24 h
Staphylococcus aureus [19] = experiment: Antibacterial activity against Staphylococcus aureus MTCC 96 after 24 hr by paper disk diffusion method; format: functional
Candida albicans [20] = experiment: Antifungal activity against Candida albicans MTCC 183 after 24 hr by paper disk diffusion method; format: functional
Klebsiella pneumoniae [21] = experiment: microbe, parasite or virus in culture; conditions: MTCC 109, 24 h, read-out: IZ
Description: Antibacterial activity against Klebsiella pneumoniae MTCC 109 at 50 ug/disk after 24 hr by paper disk diffusion method

Salmonella typhi [22] = experiment: Antibacterial activity against Salmonella enterica subsp. enterica serovar Typhi MTCC 733 at 50 ug/disk after 24 hr by paper disk diffusion method; format: functional; conditions: MTCC 733, 24 h, read-out: IZ
Pseudomonas aeruginosa [23] = experiment: microbe, parasite or virus in culture; conditions: MTCC 741, 24 h, read-out: IZ
Description: Antibacterial activity against Pseudomonas aeruginosa MTCC 741 at 50 ug/disk after 24 hr by paper disk diffusion method

Bacillus cereus [24] = experiment: Antibacterial activity against Bacillus cereus MTCC 619 at 50 ug/disk after 24 hr by paper disk diffusion method; format: functional; conditions: MTCC 619, 24 h, read-out: IZ
Shigella flexneri [25] = experiment: Antibacterial activity against Shigella flexneri MTCC 1457 at 50 ug/disc after 24 hr by paper disk diffusion method; format: functional; conditions: MTCC 1457, 24 h, read-out: IZ
Escherichia coli [26] = experiment: microbe, parasite or virus in culture; conditions: MTCC 739, 24 h, read-out: IZ
Description: Antibacterial activity against Escherichia coli MTCC 739 at 50 ug/disk after 24 hr by paper disk diffusion method

Staphylococcus aureus [27] = experiment: Antibacterial activity against Staphylococcus aureus MTCC 96 at 50 ug/disc after 24 hr by paper disk diffusion method; conditions: MTCC 96, 24 h, read-out: IZ
Proteus vulgaris [28] = experiment: Antibacterial activity against Proteus vulgaris MTCC 1771 at 50 ug/disk after 24 hr by paper disk diffusion method; format: functional; conditions: MTCC 1771, 24 h, read-out: IZ
Candida albicans [29] = experiment: Antifungal activity against Candida albicans MTCC 183 at 50 ug/disk after 24 hr by paper disk diffusion method; format: functional; conditions: MTCC 183, 24 h, read-out: IZ
Aspergillus niger [30] = experiment: Antifungal activity against Aspergillus niger MTCC 282 at 50 ug/disk after 24 hr by paper disk diffusion method; format: functional; conditions: MTCC 282, 24 h, read-out: IZ

| SMILES | MIC (Candida albicans [1]) [µg/mL] | MIC (Bacillus cereus [2]) [µg/mL] | inhibition zone (IZ) (Aspergillus niger [3]) [mm] | inhibition zone (IZ) (Proteus vulgaris [4]) [mm] | inhibition zone (IZ) (Bacillus cereus [5]) [mm] | inhibition zone (IZ) (Klebsiella pneumoniae [6]) [mm] | MIC (Shigella flexneri [7]) [µg/mL] | inhibition zone (IZ) (Salmonella typhi [8]) [mm] | MIC (Aspergillus niger [9]) [µg/mL] | inhibition zone (IZ) (Escherichia coli [10]) [mm] | inhibition zone (IZ) (Pseudomonas aeruginosa [11]) [mm] | MIC (Salmonella typhi [12]) [µg/mL] | MIC (Klebsiella pneumoniae [13]) [µg/mL] | inhibition zone (IZ) (Shigella flexneri [14]) [mm] | MIC (Proteus vulgaris [15]) [µg/mL] | MIC (Pseudomonas aeruginosa [16]) [µg/mL] | MIC (Escherichia coli [17]) [µg/mL] | MIC (Staphylococcus aureus [18]) [µg/mL] | inhibition zone (IZ) (Staphylococcus aureus [19]) [mm] | inhibition zone (IZ) (Candida albicans [20]) [mm] | further results |
| --- | --- | --- | --- | --- | --- | --- | --- | --- | --- | --- | --- | --- | --- | --- | --- | --- | --- | --- | --- | --- | --- |
| Cn1c(=O)cc(Oc2nc(NCc3ccccc3)nc(Nc3ccc(C#N)cc3)n2)c2ccccc21 | > 50 | 50 (≈ 105 µM) | <5 | <5 | 10 | 15 | 50 (≈ 105 µM) | <5 | > 50 | 9 | 7 | 50 (≈ 105 µM) | 12.5 (≈ 26.3 µM) | 6 | 50 (≈ 105 µM) | 50 (≈ 105 µM) | 50 (≈ 105 µM) | 12.5 (≈ 26.3 µM) | 13 | <5 |  |
| Cn1c(=O)cc(Oc2nc(NCCc3cccs3)nc(Nc3ccc(C#N)cc3)n2)c2ccccc21 | 25 (≈ 50.4 µM) | 25 (≈ 50.4 µM) | 13 | 7 | 13 | 10 | 25 (≈ 50.4 µM) | 12 | 25 (≈ 50.4 µM) | 10 | 10 | 50 (≈ 101 µM) | 50 (≈ 101 µM) | 14 | 50 (≈ 101 µM) | 50 (≈ 101 µM) | 50 (≈ 101 µM) | 6.25 (≈ 12.6 µM) | 15 | 15 |  |
| O=C(O)c1cn(C2CC2)c2cc(N3CCNCC3)c(F)cc2c1=O [CIPROFLOXACIN] |  | 1 (≈ 3.02 µM) |  |  |  |  | ≤ 3 |  |  |  |  | 1 (≈ 3.02 µM) | 1 (≈ 3.02 µM) |  | 1 (≈ 3.02 µM) | 1 (≈ 3.02 µM) |  | 1 (≈ 3.02 µM) |  |  | zone of inhibition at 50 µg/disc (Klebsiella pneumoniae [21]): 16 mm; zone of inhibition at 50 µg/disc (Salmonella typhi [22]): 16 mm; zone of inhibition at 50 µg/disc (Pseudomonas aeruginosa [23]): 15 mm; zone of inhibition at 50 µg/disc (Bacillus cereus [24]): 16 mm; zone of inhibition at 50 µg/disc (Shigella flexneri [25]): 17 mm; zone of inhibition at 50 µg/disc (Escherichia coli [26]): 18 mm; zone of inhibition at 50 µg/disc (Staphylococcus aureus [27]): 17 mm; zone of inhibition at 50 µg/disc (Proteus vulgaris [28]): 17 mm |
| CC(=O)N1CCN(c2ccc(OCC3COC(Cn4ccnc4)(c4ccc(Cl)cc4Cl)O3)cc2)CC1 (centres undefined) [KETOCONAZOLE] | 1 (≈ 1.88 µM) |  |  |  |  |  |  |  | ≤ 3 |  |  |  |  |  |  |  |  |  |  |  | zone of inhibition at 50 µg/disc (Candida albicans [29]): 17 mm; zone of inhibition at 50 µg/disc (Aspergillus niger [30]): 16 mm |
